Source: PMC6310865 (Proceedings of the National Academy of Sciences of the …, 2018)

Test system: CD4+ T cells
Type: cell-based, human
Conditions: all cases versus controls; […]

For “NP17–31: nucleoprotein epitope, PR8 specific (GERQNATEIRASVGK)”, the “Tetramer-positive CD4+ T cells in T1N cases versus DQ0602 controls” value was “significant overabundance”.

In the case of “NP261–275: nucleoprotein epitope shared between A/California/07/2009 and PR8 (RSALILRGSVAHKSC; UniProt P03466 261-275, looked up, fragment)”, the “Tetramer-positive CD4+ T cells in T1N cases versus DQ0602 controls” value is reported as “little to no significant differences”.
